Experimental data: patent US12129267B2, “Heteroaryl amide compounds as sting activators” (Incyte Corporation, priority 2019, dated 2024)

Each molecule was assayed on IRF3 (assay: IRF3 activation assay in THP-1 Dual Cells). Conditions: Homo sapiens, THP1-Dual, 24 hours incubation, QUANTI-Blue readout.
Type: cell-based
Description: THP-1 Dual Cells (Invivogen) were maintained in RPMI1640 medium with addition of 10% FBS, 100 μg/mL zeocin, 10 μg/mL blasticidin. Cells were added in a 96-well flat bottom assay plate at 100,000 per well in 100 μL complete RPMI medium. Test compounds were prepared by serial dilution in complete RPMI medium and 100 μL test compounds were transferred to each corresponding well. The assay plate was incubated at 37° C., 5% CO2 for 24 hours. After the overnight incubation, 20 μL of the culture supernatants were collected, followed by addition of 180 μL of QUANTI-Blue (Invivogen) to assess IRF3 activity. The amount of IRF3 activation was assessed by reading the absorbance at 620-655 nm with a microplate reader 2 hours later. The culture supernatant from the untreated THP-1 cells was used as the negative control. To determine the NF-κB activation, another 20 μL of culture supernatant were transferred to a 96-well white plate, followed by addition of 50 μL of Quanti-Luc™ assay solution (Invivogen). The amount of NF-κB activation induced by the test compounds were determined by the luminescence above the untreated control. EC50 determination was performed by fitting the curve of percent control activity versus the log of the compound concentration using the GraphPad Prism 6.0 software.

Row | EC50 [nM] | SMILES
1 | < 100 | CCn1nc(C)cc1C(=O)Nc1nc2cc(C(N)=O)c3ccoc3c2n1C/C=C/Cn1c2nc(-c3cc(C)nn3CC)ncc2c2cc(C(N)=O)cc(OC)c21 [Example 1, (E)-1-(4-(6-carbamoyl-2-(1-ethyl-3-methyl-1H-pyrazol-5-yl)-8-methoxy-9H-pyrimido[4,5-b]indol-9-yl)but-2-en-1-yl)-2-(1-ethyl-3-methyl-1H-pyrazole-5-carboxamido)-1H-benzofuro[6,7-d]imidazole-5-carboxamide]
2 | < 100 | CCn1nc(C)cc1C(=O)Nc1nc2cc(C(N)=O)c3ccoc3c2n1C/C=C/Cn1c2nc(-c3cc(C)nn3CC)ncc2c2cc(C(N)=O)cc(OCCCOC)c21 [Example 2, (E)-1-(4-(6-carbamoyl-2-(1-ethyl-3-methyl-1H-pyrazol-5-yl)-8-(3-methoxypropoxy)-9H-pyrimido[4,5-b]indol-9-yl)but-2-en-1-yl)-2-(1-ethyl-3-methyl-1H-pyrazole-5-carboxamido)-1H-benzofuro[6,7-d]imidazole-5-carboxamide]
3 | < 100 | CCn1nc(C)cc1C(=O)Nc1nc2cc(C(N)=O)c3ccoc3c2n1C/C=C/Cn1c2nc(-c3cc(C)nn3CC)ncc2c2cc(C(N)=O)cc(OCCCO)c21 [Example 3, (E)-1-(4-(6-carbamoyl-2-(1-ethyl-3-methyl-1H-pyrazol-5-yl)-8-(3-hydroxypropoxy)-9H-pyrimido[4,5-b]indol-9-yl)but-2-en-1-yl)-2-(1-ethyl-3-methyl-1H-pyrazole-5-carboxamido)-1H-benzofuro[6,7-d]imidazole-5-carboxamide]
